Results reported in patent publication US11479802B2, “Assays for screening activity of modulators of members of the hydroxy steroid (17-beta) dehydrogenase (HSD17B) family” (Regeneron Pharmaceuticals, Inc., priority 2017, dated 2022).

Biological target: T1, human HSD17B13 (Homo sapiens, UniProt Q7Z5P4)
T1 sequence (Q7Z5P4 20-300): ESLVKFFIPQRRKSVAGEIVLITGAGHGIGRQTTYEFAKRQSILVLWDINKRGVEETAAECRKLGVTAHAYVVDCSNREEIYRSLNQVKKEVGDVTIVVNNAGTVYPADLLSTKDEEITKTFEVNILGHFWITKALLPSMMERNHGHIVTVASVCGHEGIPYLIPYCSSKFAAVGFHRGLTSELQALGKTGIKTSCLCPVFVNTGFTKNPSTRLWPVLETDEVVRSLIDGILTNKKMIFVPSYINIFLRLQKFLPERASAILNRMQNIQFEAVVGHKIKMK
Test: Substrate screening of steroid and bioactive lipid libraries against purified recombinant HSD17B13 (NADH-linked luciferase assay)
Format: biochemical
Settings: for HSD17B13 Enzymatic Activity Relative Light Units: 500 μM NAD+, 100 ng enzyme, 3 hours at 23° C.; for HSD17B13 Enzymatic Activity Percent Estradiol Control: normalized to 50 μM estradiol after subtraction of 5% DMSO
In short: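 Substrates (bioactive lipids 5 μM, steroids 50 μM; 5% DMSO) tested with 500 μM NAD+ and 100 ng recombinant human HSD17B13 in 0.2 M Tris-HCl pH 7.5, 3 h, 23° C. Luminescent NADH detection followed 1 h later; RLU normalized to estradiol (50 μM, 100%) and DMSO (0%) controls.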

[1] = Bioactive Lipid Library, 5 μM bioactive lipid (Estradiol Control 50 μM)
[2] = Bioactive Lipid Library, 5 μM bioactive lipid

| Compound | HSD17B13 Enzymatic Activity Relative Light Units [1] | HSD17B13 Enzymatic Activity Percent Estradiol Control [2] | HSD17B13 Enzymatic Activity Relative Light Units (Steroid Library, 50 μM steroid) | HSD17B13 Enzymatic Activity Percent Estradiol Control (Steroid Library, 50 μM steroid) |
| --- | --- | --- | --- | --- |
| O=C(O)CCCC=C1CC2CC(O)C(C#CC(O)C3CCCCC3)C2C1 (centres unmarked) [13,14-dehydro-15-cyclohexyl Carbaprostacyclin] | 356360 RLU | 5.79% | – | – |
| Ptdlns-(3,4,5)-P3 (1,2-dipalmitoyl) (sodium salt) | 334600 RLU | 0.72% | – | – |
| CCCCC[C@H](O)/C=C/C=C\CCCCCCCCCC(=O)O [15(S)-HEDE] | 1060680 RLU | 57.54% | – | – |
| O=P([O-])(O)OC1[C@@H](O)[C@H](OP(=O)([O-])O)C(OP(=O)([O-])O)[C@H](OP(=O)([O-])O)[C@H]1O.[Na+].[Na+].[Na+].[Na+] (stereo partly drawn) [D-myo-Inositol-1,2,3,5-tetraphosphate (sodium salt)] | 430640 RLU | 7.98% | – | – |
| CCC(O)/C=C/C=C\C/C=C\C/C=C\C/C=C\C/C=C\CCC(=O)O (racemic) [(±)20-HDHA] | 1400640 RLU | 82.82% | – | – |
| CCCCCCCC/C(=C\CCCCCCCC(=O)O)[N+](=O)[O-] [10-Nitrooleate] | 28200 RLU | −22.42% | – | – |
| CCCCCCCC\C=C/C=C/C=C/[C@@H]1O[C@H]1CCCC(=O)OC [Leukotriene A3 methyl ester] | 990560 RLU | 55.92% | – | – |
| C[C@]12CCC(=O)C[C@@H]1CC[C@@H]1[C@@H]2[C@@H](O)C[C@@]2(C)[C@H]1CC[C@]2(O)C(=O)CO [5alpha-dihydrocortisol] | – | – | 139720 RLU | −0.36% |
| Epiandrosterone acetate | – | – | 210960 RLU | 0.88% |
| CCCCC/C=C\C/C=C\C/C=C\C=C\[C@H](CCCC(=O)O)OO [5(S)-HpETE] | 225600 RLU | −4.55% | – | – |
| CCCCC[C@H](O)/C=C/C=C\C/C=C\CCCCC(=O)O [13(S)-HOTrE(γ)] | 458840 RLU | 12.79% | – | – |
| CC/C=C\C/C=C\C/C=C\C/C=C\C/C=C\CC1OC1CCC(=O)OC (racemic) [(±)4(5)-EpDPA methyl ester] | 338320 RLU | 1.00% | – | – |
| C[C@@H](O)CCC[C@@H](O)/C=C/[C@@H]1[C@@H](C/C=C\CCCC(=O)O)[C@@H](O)C[C@H]1O [15(R),19(R)-hydroxy Prostaglandin F2α] | 382720 RLU | 7.88% | – | – |
| CCCCC[C@H](O)/C=C/[C@@H]1[C@@H](C/C=C\CC(=O)O)[C@@H](O)C[C@@H]1O [2,3-dinor-11β-Prostaglandin F2α] | 265000 RLU | −1.43% | – | – |
| Ptdlns-(4)-P1 (1,2-dipalmitoyl) (ammonium salt) | 123240 RLU | −15.24% | – | – |
| CC/C=C\C/C=C\C/C=C\CC(O)/C=C/C=C\CCCC(=O)O (racemic) [(±)9-HEPE] | 699960 RLU | 30.72% | – | – |
| C[C@]12CC[C@H](O)C[C@H]1CC[C@@H]1[C@@H]2CC[C@]2(C)[C@@](O)(c3ccoc3)CC[C@]12O [Rostafuroxin] | – | – | 187520 RLU | 0.47% |
| CCCCC[C@H](O)/C=C/[C@H]1CC2CC(C2)[C@@H]1C/C=C\CCCC(=O)O [Carbocyclic Thromboxane A2] | 309000 RLU | 2.05% | – | – |
| C[C@]12CCC(=O)C=C1CC[C@@H]1[C@@H]2[C@@H](O)C[C@]2(C=O)[C@@H](C(=O)CO)CC[C@@H]12 [Aldosterone] | – | – | 217400 RLU | 0.99% |
